{"source": "ChEMBL document CHEMBL4706559", "about": "“New indolylarylsulfone non-nucleoside reverse transcriptase inhibitors show low nanomolar inhibition of single and double HIV-1 mutant strains” (Eur J Med Chem, 2020)", "key": {"[1]": {"molecular_target": "Human immunodeficiency virus type 1 reverse transcriptase (Human immunodeficiency virus 1) (UniProt Q72547)", "test": "Inhibition of wild type HIV1 p66/p51 reverse transcriptase assessed as apparent Vmax at 30 nM using fixed concentration of poly(rA)/oligo(dT) as templates in presence of 2 to 100 uM of [3H]dTTP by Michaelis-Menten analysis (reference value: 9.7 +/- 12%)"}, "[2]": {"test_system": "Human immunodeficiency virus 1", "test": "Antiviral activity against HIV1 harboring RT K103N/Y181C double mutant infected in human MT4 cells assessed as protection against virus-induced cytopathic effect by MTT assay", "type": "functional, organism-based", "conditions": "Human immunodeficiency virus 1, MT4"}, "[3]": {"molecular_target": "Human immunodeficiency virus type 1 reverse transcriptase (Human immunodeficiency virus 1, UniProt Q72547)", "test": "Binding affinity to wild type HIV-1 p66/p51 reverse transcriptase/nucleic acid binary complex using poly(rA)/oligo(dT) as templates in presence of [3H]dTTP"}, "[4]": {"test_system": "Human immunodeficiency virus 1", "test": "Binding affinity to HIV-1 p66/p51 reverse transcriptase K103N/Y181C double mutant/nucleic acid binary complex assessed as dissociation constant using poly(rA)/oligo(dT) as templates in presence of [3H]dTTP"}, "[5]": {"test_system": "Human immunodeficiency virus 1", "test": "Inhibition of HIV1 p66/p51 reverse transcriptase K103N/Y181C double mutant assessed as apparent Km of substrate at 75 nM using […] as templates in presence of fixed concentration of [3H]dTTP by Michaelis-Menten analysis (reference value: 106+/- 16 nM)"}, "[6]": {"test_system": "Human immunodeficiency virus 1", "test": "Synergistic inhibition of HIV-1 p66/p51 reverse transcriptase K103N/Y181C double mutant assessed as combination index using poly(rA)/oligo(dT) as templates in presence of [3H]dTTP preincubated enzyme with nucleic acid followed by addition of AZTTP and subsequent incubation with compound and dTTP"}, "[7]": {"molecular_target": "Human immunodeficiency virus type 1 reverse transcriptase (Human immunodeficiency virus 1) (UniProt Q72547)", "test": "Ratio of Kon of wild type HIV-1 p66/p51 reverse transcriptase/nucleic acid binary complex to Kon of wild type HIV-1 p66/p51 reverse transcriptase/nucleic acid/dTTP ternary complex using poly(rA)/oligo(dT) as templates in presence of [3H]dTTP"}, "[8]": {"test_system": "Human immunodeficiency virus 1", "test": "Inhibition of HIV1 p66/p51 reverse transcriptase K103N/Y181C double mutant assessed as apparent Km of substrate at 150 nM using fixed concentration of poly(rA)/oligo(dT) as templates in presence of 2 to 100 uM of [3H]dTTP by Michaelis-Menten analysis (reference value: 9.2 +/- 1.4 uM)"}, "[9]": {"test": "Binding affinity to free form of HIV-1 p66/p51 reverse transcriptase K103N/Y181C double mutant using poly(rA)/oligo(dT) as templates in presence of [3H]dTTP", "set-up": "species or system Human immunodeficiency virus 1"}, "[10]": {"molecular_target": "Human immunodeficiency virus type 1 reverse transcriptase (Human immunodeficiency virus 1) (UniProt Q72547)", "test": "Binding affinity to wild type HIV-1 p66/p51 reverse transcriptase/nucleic acid binary complex assessed as association constant using poly(rA)/oligo(dT) as templates in presence of [3H]dTTP"}, "[11]": {"molecular_target": "Human immunodeficiency virus type 1 reverse transcriptase (Human immunodeficiency virus 1) (UniProt Q72547)", "test": "Binding affinity to wild type HIV-1 p66/p51 reverse transcriptase/nucleic acid/dTTP ternary complex assessed as dissociation constant using poly(rA)/oligo(dT) as templates in presence of [3H]dTTP"}, "[12]": {"test_system": "Human immunodeficiency virus 1", "test": "Binding affinity to free form of HIV-1 p66/p51 reverse transcriptase K103N/Y181C double mutant assessed as association constant using poly(rA)/oligo(dT) as templates in presence of [3H]dTTP"}, "[13]": {"test": "Binding affinity to HIV-1 p66/p51 reverse transcriptase K103N/Y181C double mutant/nucleic acid/dTTP ternary complex using poly(rA)/oligo(dT) as templates in presence of [3H]dTTP", "set-up": "species or system Human immunodeficiency virus 1"}, "[14]": {"test_system": "Human immunodeficiency virus 1", "test": "Binding affinity to HIV-1 p66/p51 reverse transcriptase K103N/Y181C double mutant/nucleic acid/dTTP ternary complex assessed as association constant using poly(rA)/oligo(dT) as templates in presence of [3H]dTTP"}, "[15]": {"test_system": "Human immunodeficiency virus 1", "test": "Inhibition of HIV1 p66/p51 reverse transcriptase K103N/Y181C double mutant assessed as apparent Vmax at 300 nM using fixed concentration of poly(rA)/oligo(dT) as templates in presence of 2 to 100 uM of [3H]dTTP by Michaelis-Menten analysis (reference value: 9.6 +/- 0.4%)"}, "[16]": {"molecular_target": "Human immunodeficiency virus type 1 reverse transcriptase (Human immunodeficiency virus 1) (UniProt Q72547)", "test": "Binding affinity to wild type HIV-1 p66/p51 reverse transcriptase/nucleic acid binary complex assessed as dissociation constant using poly(rA)/oligo(dT) as templates in presence of [3H]dTTP"}, "[17]": {"molecular_target": "Human immunodeficiency virus type 1 reverse transcriptase (Human immunodeficiency virus 1) (UniProt Q72547)", "test": "Binding affinity to free form of wild type HIV-1 p66/p51 reverse transcriptase assessed as dissociation constant using poly(rA)/oligo(dT) as templates in presence of [3H]dTTP"}, "[18]": {"molecular_target": "Human immunodeficiency virus type 1 reverse transcriptase (Human immunodeficiency virus 1, UniProt Q72547, K103N)", "test": "Inhibition of RNA-dependent DNA polymerase activity of recombinant HIV-1 p66/p51 reverse transcriptase K103N mutant assessed as inhibition of [3H]dTTP incorporation using poly(rA)/oligo(dT) as templates incubated for 15 mins by MicroBeta scintillation counting method"}, "[19]": {"test_system": "Human immunodeficiency virus 1", "test": "Resistance index, ratio of EC50 for antiviral activity against HIV1 harboring RT K103N/Y181C double mutant infected in human MT4 cells to EC50 for antiviral activity against HIV1 NL4-3 infected in human MT4 cells", "type": "functional"}, "[20]": {"test_system": "Human immunodeficiency virus 1", "test": "Inhibition of HIV1 p66/p51 reverse transcriptase K103N/Y181C double mutant assessed as apparent Km of substrate at 300 nM using […] as templates in presence of fixed concentration of [3H]dTTP by Michaelis-Menten analysis (reference value: 106+/- 16 nM)"}, "[21]": {"molecular_target": "Human immunodeficiency virus type 1 reverse transcriptase (Human immunodeficiency virus 1) (UniProt Q72547)", "test": "Ratio of Koff of wild type HIV-1 p66/p51 reverse transcriptase/nucleic acid binary complex to Koff of wild type HIV-1 p66/p51 reverse transcriptase/nucleic acid/dTTP ternary complex using poly(rA)/oligo(dT) as templates in presence of [3H]dTTP"}, "[22]": {"molecular_target": "Human immunodeficiency virus type 1 reverse transcriptase (Human immunodeficiency virus 1) (UniProt Q72547)", "test": "Ratio of Koff of wild type HIV-1 p66/p51 reverse transcriptase/nucleic acid binary complex to Koff of free form of wild type HIV-1 p66/p51 reverse transcriptase using poly(rA)/oligo(dT) as templates in presence of [3H]dTTP"}, "[23]": {"test_system": "Human immunodeficiency virus 1", "test": "Inhibition of HIV1 p66/p51 reverse transcriptase K103N/Y181C double mutant assessed as apparent Vmax at 150 nM using 10 to 500 uM poly(rA)/oligo(dT) as templates in presence of fixed concentration of [3H]dTTP by Michaelis-Menten analysis (reference value: 12 +/- 1%)"}, "[24]": {"test_system": "Human immunodeficiency virus 1", "test": "Binding affinity to HIV-1 p66/p51 reverse transcriptase K103N/Y181C double mutant/nucleic acid/dTTP ternary complex assessed as dissociation constant using poly(rA)/oligo(dT) as templates in presence of [3H]dTTP"}, "[25]": {"molecular_target": "Human immunodeficiency virus type 1 reverse transcriptase (Human immunodeficiency virus 1) (UniProt Q72547)", "test": "Inhibition of wild type HIV1 p66/p51 reverse transcriptase assessed as apparent Vmax at 37.5 nM using 10 to 500 uM poly(rA)/oligo(dT) as templates in presence of fixed concentration of [3H]dTTP by Michaelis-Menten analysis (reference value: 10 +/- 0.5%)"}}}
{"smiles": "Cc1cc(C)cc(S(=O)(=O)c2c(C(=O)NCc3ccccc3O)[nH]c3ccc(Cl)cc23)c1", "values": [{"measurement": "Vmax(app)", "setting": "[1]", "result": 5.6, "unit": "%"}, {"measurement": "EC50", "setting": "[2]", "result": 6.2, "unit": "nM"}, {"measurement": "Ki", "setting": "[3]", "result": 36, "unit": "nM"}, {"measurement": "K", "setting": "[4]", "result": "8 10^-3/s"}, {"measurement": "Km", "setting": "[5]", "result": 0.108, "unit": "µM"}, {"measurement": "CI", "setting": "[6]", "result": 0.6}, {"measurement": "Ratio", "setting": "[7]", "result": 7}, {"measurement": "Km", "setting": "[8]", "result": 2.2, "unit": "µM"}, {"measurement": "Ki", "setting": "[9]", "result": 137, "unit": "nM"}, {"measurement": "K", "setting": "[10]", "result": "96 10^-5/nM/s"}, {"measurement": "K", "setting": "[11]", "result": "4.1 10^-3/s"}, {"measurement": "K", "setting": "[12]", "result": "10 10^-5/nM/s"}, {"measurement": "Ki", "setting": "[13]", "result": 78, "unit": "nM"}, {"measurement": "K", "setting": "[14]", "result": "42 10^-5/nM/s"}, {"measurement": "Vmax(app)", "setting": "[15]", "result": 1.5, "unit": "%"}, {"measurement": "K", "setting": "[16]", "result": "35 10^-3/s"}, {"measurement": "K", "setting": "[17]", "result": "4 10^-3/s"}, {"measurement": "IC50", "setting": "[18]", "result": 73, "unit": "nM"}, {"measurement": "Ratio EC50", "setting": "[19]", "result": ">8.8"}, {"measurement": "Km", "setting": "[20]", "result": 0.104, "unit": "µM"}, {"measurement": "Ratio", "setting": "[21]", "result": 8}, {"measurement": "Ratio", "setting": "[22]", "result": 8}, {"measurement": "Vmax(app)", "setting": "[23]", "result": 6, "unit": "%"}, {"measurement": "K", "setting": "[24]", "result": "33 10^-3/s"}, {"measurement": "Vmax(app)", "setting": "[25]", "result": 4.9, "unit": "%"}]}
